Test results: the NIST ThermoML archive (doi:10.1021/je101014q)

Experiment: xn = mol fraction of the nth substance listed
Details: 101 kPa, Liquid, Cone and plate viscometry

CC(=O)[O-].CCCC[N+](CC)(CC)CC [N,N,N-triethylbutanaminium acetate] + O
viscosity [mPa·s]
Details	x1 = 0.17	x1 = 0.33	x1 = 0.5	x1 = 1
298.2 K	13	66	79	439
313.2 K	10.9	39.4	55.5	306.7
333.2 K	5.15	12.6	15.6	47.3
